Measurements taken from publication PMC3465485 (Antiviral research, 2012).
Entries after “also recorded” stand apart in the source; their conditions may differ. Read-outs that look alike come from different tables or passages of the source.

Experiments:
[1] = test system: A/Hong Kong/2369/2009 (H1N1) H275Y (A/HK-H275Y) virus
[2] = test system: Influenza A/Mississippi/03/2001 (H1N1) H275Y (A/MS-H275Y) virus
[3] = test system: influenza A/MS-H275Y virus; design: species or system BALB/c mice; conditions: mouse, in vivo
[4] = test system: influenza A/HK-H275Y virus; design: species or system BALB/c mice; conditions: mouse, in vivo
[5] = biological target: A/MS-H275Y neuraminidase (Influenza A virus (A/Mississippi/03/2001(H1N1)), UniProt C7FPR5, H275Y); format: biochemical
[6] = test system: influenza A/HK-H275Y virus neuraminidase; conditions: NA-Star assay, ref Nguyen et al., 2010a; cited from earlier work
[7] = biological target: A/HK-H275Y neuraminidase (Influenza A virus (A/Hong Kong/2369/2009(H1N1)), UniProt C6KQ69); experiment: biochemical
[8] = test system: influenza A/WSN/33 (H1N1) H275Y virus; conditions: A/WSN/33 (H1N1) H275Y in mice, up to 10 mg/kg/day; ref Baz et al. (2009); cited from earlier work
[9] = read-out: EC50 (50% virus-inhibitory concentration)

Row | Compound | EC50 [1] [µM] | antiviral activity in cell culture (in words) [1] | EC50 [2, 9] [µM] | survival effect (in words) [3] | antiviral activity in cell culture (in words) [2] | sensitivity of the viral neuraminidases (in words) [5] | IC50 [6] [µM] | other results
1 | NC12CC3CC(CC(C3)C1)C2 [Amantadine] | > 100 | not active | 0.3 ± 0.05 | No significant effect | – | – | – | survival effect (in words) ([3]; po, 3 mg/kg/day): no effect; protection from death ([3]; po, 30 mg/kg/day): 60%; protection from death ([3]; po, 100 mg/kg/day): 100%; protective activity ([3]; po, 100 mg/kg/day): 100%
2 | CC(N)C12CC3CC(CC(C3)C1)C2 (stereo not shown) [Rimantadine] | > 22 | not active | 0.01 ± 0.003 | no significant effect | – | – | – | SI (CC50/EC50) [1]: 0; SI (CC50/EC50) [2]: 2200
3 | NC(=O)c1ncn([C@@H]2O[C@H](CO)[C@@H](O)[C@H]2O)n1 [Ribavirin] | 33 ± 13 | – | 25 ± 4.6 | not effective | – | – | – | lung virus titer versus placebo (in words) ([4]; po): significantly reduced virus titers; also recorded: not significantly lower than placebo; body weight change (in words) ([4]; po, 75 mg/kg/day): Weight decline was least severe; day of infection after which weight gain started ([4]; po, 75 mg/kg/day): > 8 days; survival effect (in words) ([4]; po, 75 mg/kg/day): fully protective
4 | CC(=O)N[C@H]1[C@H]([C@H](O)[C@H](O)CO)OC(C(=O)O)=C[C@@H]1N=C(N)N [Zanamivir] | 0.36 ± 0.58 | highly sensitive | 0.24 ± 0.08 | ineffective; also recorded: delayed the time to death significantly but did little to prevent mortality | highly sensitive | sensitive | 0.43 | IC50 ([7]; IC50): 0.0009 ± 0.0002 µM
5 | CCC(CC)O[C@@H]1C=C(C(=O)O)C[C@H](N)[C@H]1NC(C)=O [Oseltamivir Carboxylate, Oseltamivir carboxylate] | > 100 | – | > 100 | – | – | resistant | 78 | IC50 ([7]; IC50): > 0.1 µM
6 | CCOC(=O)C1=C[C@@H](OC(CC)CC)[C@H](NC(C)=O)[C@@H](N)C1 [Oseltamivir, Oseltamivir phosphate] | – | resistant | – | not active | resistant | – | – | protection [3]: up to 60%; survival effect (in words) ([3]; po): ineffective; benefit (in words) ([3]; po, 25 mg/kg/day): no benefit; survival (protection from death) ([3]; po, 100 mg/kg/day): 30%; survival (protection from death) ([3]; po, 300 mg/kg/day): 60%; efficacy in treating the infection (in words) [8]: ineffective; mortality rate [8]: 75%; body weight change (in words) [4]: did not fall as rapidly as in the lower dosage and placebo groups; day of infection after which body weights began to increase [4]: > 10 days; survival effect (in words) [4]: not significantly effective; benefit (in words) ([4]; po, 25 mg/kg/day): no benefit; survival (protection from death) ([4]; po, 100 mg/kg/day): 50%; survival (protection from death) ([4]; po, 300 mg/kg/day): 70%
7 | Peramivir | 7.9 ± 3 | decreased sensitivity | 8.1 ± 5.2 | – | decreased sensitivity | resistant | 9.2 | SI (CC50/EC50) [1]: >12; SI (CC50/EC50) [2]: >12; EC50 ([2]; read-out: inhibitory concentration against the H275Y viruses in cell culture): ~8 µM; IC50 [5]: 0.038 ± 0.001 µM; IC50 [7]: 0.029 ± 0.0023 µM
